Source: article PMC6268935, “Antiatherogenic Properties of Acetone Extract of Alpinia zerumbet Seeds” (Molecules, 2012)
In brackets after ≈: the same amount, converted by molar mass. Like-named read-outs stand apart in the source and are kept apart here.

How the values were obtained:
[1] = system: low-density lipoprotein cholesterol from human plasma (LDL); assay: LDL oxidation inhibition assay (CuSO4-induced, TBARS); type: biochemical; settings: copper-induced LDL oxidation, n = 3
Description: The oxidation of LDL was investigated as described by Rattan and Arad. […] The reaction was stopped by adding 50 μL of 1 M EDTA and placing the sample at −20 °C for TBA reactive substance (TBARS) assay. The generation of malonyldialdehyde (MDA) equivalents during LDL oxidation was estimated by the TBARS assay using the method of Steinbrecher et al.. LDL oxidation was carried out as described above. After oxidation, LDL was mixed with 1.5 mL of 0.67% TBA and 1.5 mL of 20% TCA. After placing samples in boiling water (100 °C) for 30 min, the reaction product was kept for 30 min at 25 °C and centrifuged for 15 min at 4 °C. The supernatants were read on a spectrophotometer at 532 nm, blank containing 220 μg/mL LDL only. The yields of MDA were used as a standard and the results were expressed as nanomoles of MDA equivalents.

[2] = target: T1, porcine pancreatic lipase (PL) (Sus scrofa, UniProt P00591); assay: Pancreatic lipase inhibition assay (p-NPB hydrolysis); type: biochemical
T1 sequence (P00591 1-450): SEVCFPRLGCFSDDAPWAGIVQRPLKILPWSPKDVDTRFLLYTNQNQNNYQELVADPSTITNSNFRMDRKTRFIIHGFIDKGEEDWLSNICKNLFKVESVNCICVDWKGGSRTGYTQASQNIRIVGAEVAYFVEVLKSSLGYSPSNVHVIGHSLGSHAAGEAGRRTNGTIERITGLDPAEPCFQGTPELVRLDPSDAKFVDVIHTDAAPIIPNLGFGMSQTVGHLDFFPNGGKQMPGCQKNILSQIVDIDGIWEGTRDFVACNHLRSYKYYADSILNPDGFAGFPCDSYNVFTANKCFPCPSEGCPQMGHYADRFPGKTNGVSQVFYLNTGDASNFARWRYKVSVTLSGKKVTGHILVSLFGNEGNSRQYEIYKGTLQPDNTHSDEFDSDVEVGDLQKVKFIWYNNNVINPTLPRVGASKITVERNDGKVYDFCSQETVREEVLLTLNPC
Description: The ability of the different parts of crude extracts to inhibit PL was measured as described previously, with slight modifications. Briefly, an enzyme buffer was prepared by the addition of 30 μL (10 units) of PL solution (in 10 mM MOPS and 1 mM EDTA, pH 6.8) to 850 μL of Tris buffer (100 mM Tris-HCl and 5 mM CaCl2, pH 7.0). […] The reaction was allowed to proceed for 15 min at 37 °C after addition of 20 μL of the substrate solution (10 mM p-NPB in dimethyl formamide). The lipase activity was determined by measuring the hydrolysis of p-NPB to p-nitrophenol at 400 nm using microplate reader. Inhibition of the lipase activity was expressed as the percentage decrease in the OD when PL was incubated with the test compounds.

[3] = target: T2, 15-Lipoxygenase from soybean (15-LO) (Glycine max, UniProt P08170); assay: 15-Lipoxygenase inhibition assay (linoleic acid substrate); type: biochemical
T2 construct: purchased Cayman Chemical Company
T2 sequence (P08170 whole entry): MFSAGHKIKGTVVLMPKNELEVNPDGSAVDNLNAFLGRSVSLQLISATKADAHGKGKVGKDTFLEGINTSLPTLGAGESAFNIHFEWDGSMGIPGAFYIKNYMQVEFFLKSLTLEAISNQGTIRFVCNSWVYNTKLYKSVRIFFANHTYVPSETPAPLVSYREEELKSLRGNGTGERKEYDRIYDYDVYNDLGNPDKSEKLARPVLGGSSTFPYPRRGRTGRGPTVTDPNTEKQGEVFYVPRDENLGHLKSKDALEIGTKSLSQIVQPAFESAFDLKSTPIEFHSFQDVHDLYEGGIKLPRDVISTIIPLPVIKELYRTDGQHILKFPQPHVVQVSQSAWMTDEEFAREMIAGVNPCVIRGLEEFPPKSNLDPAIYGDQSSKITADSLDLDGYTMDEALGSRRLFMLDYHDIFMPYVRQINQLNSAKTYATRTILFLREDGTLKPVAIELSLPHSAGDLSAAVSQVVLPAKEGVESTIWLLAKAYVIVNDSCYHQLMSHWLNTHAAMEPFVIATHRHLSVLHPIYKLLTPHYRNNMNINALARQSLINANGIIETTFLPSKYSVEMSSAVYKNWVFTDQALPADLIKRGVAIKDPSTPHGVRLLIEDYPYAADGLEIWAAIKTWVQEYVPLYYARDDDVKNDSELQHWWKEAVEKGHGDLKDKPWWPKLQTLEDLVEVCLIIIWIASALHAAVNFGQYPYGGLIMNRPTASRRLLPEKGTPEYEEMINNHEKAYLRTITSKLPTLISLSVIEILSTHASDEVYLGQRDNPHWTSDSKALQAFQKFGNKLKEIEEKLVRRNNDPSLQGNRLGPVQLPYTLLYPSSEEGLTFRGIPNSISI
Description: The final enzyme concentration was 500 units/mL and the test samples were dissolved in DMSO solutions. All measurements were carried out at least twice, in each instance using caffeic and ferulic acids, a well-known inhibitor of 15-LO, as positive controls.

[4] = system: enzymes in the cholesterol biosynthetic pathway; settings: cited from earlier work
[5] = system: rat hepatic stellate cells; parameters: method as in PMID 15787259; settings: cited from earlier work
human cancer cell line = system: human cancer cell line; parameters: method as in PMID 19382453; settings: cited from earlier work
[6] = system: accelerated atherosclerosis in native hearts; parameters: method as in PMID 8419015; settings: native hearts of a rabbit heart transplant model; cited from earlier work
[7] = normal human; cited from earlier work
tyrosinase mushroom = tyrosinase mushroom (Agaricus bisporus, UniProt C7FF04); assay: Anti-tyrosinase activity assay; type: biochemical; settings: n = 3
Sequence of tyrosinase mushroom (C7FF04 1-392): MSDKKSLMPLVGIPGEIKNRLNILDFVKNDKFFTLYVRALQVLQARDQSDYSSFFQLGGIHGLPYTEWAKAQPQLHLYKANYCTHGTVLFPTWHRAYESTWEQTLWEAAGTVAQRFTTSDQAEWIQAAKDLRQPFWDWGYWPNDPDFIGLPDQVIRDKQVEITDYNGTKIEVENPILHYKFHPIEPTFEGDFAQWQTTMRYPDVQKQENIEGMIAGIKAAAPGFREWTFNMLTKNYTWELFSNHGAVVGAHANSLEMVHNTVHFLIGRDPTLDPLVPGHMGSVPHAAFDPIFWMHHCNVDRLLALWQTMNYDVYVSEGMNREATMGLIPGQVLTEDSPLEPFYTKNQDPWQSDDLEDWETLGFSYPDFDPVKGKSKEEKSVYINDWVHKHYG
Description: Tyrosinase activity inhibition was determined by the method as described previously [29]. In brief, sample extracts were dissolved in methanol to make the different concentrations (μg/mL). The 96-well plate was set up in the following order; 120 μL of phosphate buffer (20 mM, pH 6.8), 20 μL of sample and 20 μL of tyrosinase mushroom (500 units/mL in 20 mM phosphate buffer). After incubation at 25 °C for 15 min, reaction was initiated by adding 20 μL of 0.85 mM L-tyrosine solution to each well. The enzyme activity was determined by measuring the absorbance at 470 nm using microplate reader (BioRad, Benchmark microplate reader, Hertfordshire, UK). […] The percentage of tyrosinase inhibition was calculated as follows:
where, A = absorbance of the control with enzyme; B = absorbance of the control without enzyme; C = absorbance of the test sample with enzyme; D = absorbance of the test sample without enzyme.

[8] = n = 3, read-out: IC50 pancreatic lipase (PL) inhibition (converted)
[9] = n = 3, read-out: IC50 15-LO inhibition (converted)

## CC(C)[C@H](C)CC[C@@H](C)[C@H]1CC[C@H]2[C@@H]3CC=C4C[C@@H](O)CC[C@]4(C)[C@H]3CC[C@]12C [campesterol]
[1]
  IC50 LDL oxidation inhibition: 149.02 ± 1.93 µg/mL (≈ 372 µM)
[2]
  IC50: 323 µM
[3]
  IC50: 361 µM
[4]
  inhibition of enzymes in the cholesterol biosynthetic pathway / cholesterol biosynthesis: could not inhibit

## CC(C)CCC[C@@H](C)[C@H]1CC[C@H]2[C@@H]3CC(=O)C4=CC(=O)CC[C@]4(C)[C@H]3CC[C@]12C [cholest-4-ene-3,6-dione]
[1]
  IC50 LDL oxidation inhibition: 16.12 ± 1.43 µg/mL (≈ 40.4 µM)
[2]; [8]
  IC50: 48.9 µM
[5]
  inhibitory activity on proliferation of rat hepatic stellate cells: inhibitory activity
[3]; [9]
  IC50: 85.8 µM
Human cancer cell line
  cytotoxic activity against human cancer cell line: cytotoxic activity

## C[C@]12CC[C@H](O)CC1=CC[C@@H]1[C@@H]2CC[C@]2(C)C(=O)CC[C@@H]12 [dehydroepiandrosterone, 3β-hydroxy-5-androsten-17-one]
[6]
  effect on development of accelerated atherosclerosis: inhibited the development of accelerated atherosclerosis
[7]
  effect on serum LDL level: reduce serum LDL level

## COc1cc(/C=C/C(=O)O)ccc1O [ferulic acid, reference compound]
[3]; n = 3
  IC50 15-LO inhibition: 54.79 ± 1.12 µg/mL (≈ 282 µM)

## O=c1c(O)c(-c2ccc(O)c(O)c2)oc2cc(O)cc(O)c12 [quercetin, reference compound]
[1]
  IC50 LDL oxidation inhibition: 22.56 ± 0.70 µg/mL (≈ 74.6 µM)

## CC[C@H](CC[C@@H](C)[C@H]1CC[C@H]2[C@@H]3CC=C4C[C@@H](O)CC[C@]4(C)[C@H]3CC[C@]12C)C(C)C [sitosterol]
[1]
  IC50 LDL oxidation inhibition: 97.76 ± 0.77 µg/mL (≈ 236 µM)
[2]; n = 3
  IC50 pancreatic lipase (PL) inhibition: 99.99 ± 1.86 µg/mL (≈ 241 µM)
[3]; n = 3
  IC50 15-LO inhibition: 123.34 ± 1.94 µg/mL (≈ 297 µM)
Tyrosinase mushroom
  IC50 tyrosinase inhibition: 187.77 ± 0.04 µg/mL (≈ 453 µM)
[4]
  inhibition of enzymes in the cholesterol biosynthetic pathway / cholesterol biosynthesis: could not inhibit

## CC[C@H](/C=C/[C@@H](C)[C@H]1CC[C@H]2[C@@H]3CC=C4C[C@@H](O)CC[C@]4(C)[C@H]3CC[C@]12C)C(C)C [stigmasterol]
[1]
  IC50 LDL oxidation inhibition: 50.01 ± 0.77 µg/mL (≈ 121 µM)
[2]; [8]
  IC50: 303 µM
[3]; [9]
  IC50: 182 µM
[4]
  inhibition of enzymes in the cholesterol biosynthetic pathway / cholesterol biosynthesis: inhibitory effects
